Values joined by “and” are separate entries in the source; they are usually repeats but may differ in a detail not shown here. Identical values can stand only once.
Key:
[1] = tested on: release of norepinephrine, acetylcholine and serotonin; conditions: dependence on added calcium; Smith et al, 1993; 1996; cited from earlier work
[2] = biological target: T1, voltage-gated potassium channels in hamster HIT-T15 insulinoma cells (Mesocricetus auratus, UniProt A0A3Q0CYQ2); assay: Whole-cell patch clamp, voltage-gated potassium currents in HIT-T15 insulinoma cells; type: cell-based, Syrian Hamster; conditions: for Voltage-Gated Potassium Current (% Control), Average: average of cells; for Voltage-Gated Potassium Current (% Control), single cells: individual cells #1-#5
T1 construct: endogenous in cells; host or cells: HIT-T15 (Syrian hamster insulinoma)
T1 sequence (A0A3Q0CYQ2 1-857): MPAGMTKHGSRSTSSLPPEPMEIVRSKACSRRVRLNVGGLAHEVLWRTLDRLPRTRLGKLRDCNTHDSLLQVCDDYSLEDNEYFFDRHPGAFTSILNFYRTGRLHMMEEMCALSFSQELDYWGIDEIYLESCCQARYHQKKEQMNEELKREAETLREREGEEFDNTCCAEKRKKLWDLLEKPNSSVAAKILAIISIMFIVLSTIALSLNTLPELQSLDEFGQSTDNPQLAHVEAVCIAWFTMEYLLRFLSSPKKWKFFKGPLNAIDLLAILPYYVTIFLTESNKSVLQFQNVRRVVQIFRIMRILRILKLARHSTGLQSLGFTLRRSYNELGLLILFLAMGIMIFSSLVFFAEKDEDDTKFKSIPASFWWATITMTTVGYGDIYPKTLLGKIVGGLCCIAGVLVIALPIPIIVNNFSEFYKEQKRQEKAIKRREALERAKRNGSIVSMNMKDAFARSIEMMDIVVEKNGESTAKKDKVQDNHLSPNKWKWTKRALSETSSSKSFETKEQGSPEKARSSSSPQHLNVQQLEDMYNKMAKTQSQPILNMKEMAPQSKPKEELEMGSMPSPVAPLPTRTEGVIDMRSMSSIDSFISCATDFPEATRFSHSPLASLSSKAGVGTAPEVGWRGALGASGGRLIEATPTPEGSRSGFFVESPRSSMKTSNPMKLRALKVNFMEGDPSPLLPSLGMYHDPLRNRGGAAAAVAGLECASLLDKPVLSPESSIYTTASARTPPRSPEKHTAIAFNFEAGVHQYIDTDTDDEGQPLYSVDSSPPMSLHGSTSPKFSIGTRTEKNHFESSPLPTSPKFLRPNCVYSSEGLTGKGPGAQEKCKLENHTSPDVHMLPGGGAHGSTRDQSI
Experimental: The purpose of this in vitro study was to evaluate the effects of HP184 on voltage-gated potassium channels in hamster HIT-T15 insulinoma cells using the whole-cell patch-clamping technique.
HIT-T15 cells (from Syrian Hamster pancreas) expressing voltage-gated potassium channels were grown in RPMI media supplemented with 10% fetal bovine serum and 1×penicillin/streptomycin in an atmosphere of 95% air/5% CO2. Cells used for patch-clamping were seeded on glass or plastic coverslips 12-36 hours before use. Currents were recorded at room temperature using the whole-cell configuration of the patch clamp technique with an Axopatch 200B amplifier (Axon Instruments, Foster City, Calif.). Briefly, electrodes (3-6 MΩ resistance) were fashioned from TW150F glass capillary tubes (World Precision Instruments Sarasota, Fla.) and filled with pipette solution (in mM: potassium aspartate 120; KCl 20; Na2ATP 4; HEPES 5; MgCl2 1; pH 7.2 adjusted with KOH). Currents were initiated by a 300-ms positive voltage pulse (20 mV) followed by a 50-ms negative pulse (−100 mV) and were recorded for off-line analyses. Once current from a cell perfused with control external solution (in mM: NaCl 130; KCl 5; sodium acetate 2.8; MgCl2 1; HEPES, 10; glucose 10; CaCl2 1 at pH7.4 adjusted with NaOH) was stabilized, the cell was perfused with external solution containing 1 μM HP184 (batch: R.C.4.53.3; molecular weight: 320.5; diluted from a 50 mM stock solution in DMSO prepared daily; the DMSO final concentration in all drug solutions was not more than 0.06%). Currents were continuously recorded until they reached steady-state condition. The same procedure was performed with increasing concentrations of HP184 (3, 10 and 30 μM, sequentially). For each concentration from each cell, the steady-state current at the end of the 20-mV activation pulse was measured in pico Ampere (pA).
The amplitude in pA for each concentration was compared with that for the control solution from the same cell and expressed as percent control (% control).

[3] = biological target: T2, cloned human Kv2.1 potassium channels (Homo sapiens, UniProt Q14721); assay: Whole-cell patch clamp, cloned human Kv2.1 channels expressed in U-373MG cells; type: cell-based; conditions: for Kv 2.1 Current (% Control), Average: average of cells; for Kv 2.1 Current (% Control), single cells: individual cells
T2 construct: expressed in transfected cells; host or cells: U-373MG (G418 selection)
T2 sequence (Q14721 1-858): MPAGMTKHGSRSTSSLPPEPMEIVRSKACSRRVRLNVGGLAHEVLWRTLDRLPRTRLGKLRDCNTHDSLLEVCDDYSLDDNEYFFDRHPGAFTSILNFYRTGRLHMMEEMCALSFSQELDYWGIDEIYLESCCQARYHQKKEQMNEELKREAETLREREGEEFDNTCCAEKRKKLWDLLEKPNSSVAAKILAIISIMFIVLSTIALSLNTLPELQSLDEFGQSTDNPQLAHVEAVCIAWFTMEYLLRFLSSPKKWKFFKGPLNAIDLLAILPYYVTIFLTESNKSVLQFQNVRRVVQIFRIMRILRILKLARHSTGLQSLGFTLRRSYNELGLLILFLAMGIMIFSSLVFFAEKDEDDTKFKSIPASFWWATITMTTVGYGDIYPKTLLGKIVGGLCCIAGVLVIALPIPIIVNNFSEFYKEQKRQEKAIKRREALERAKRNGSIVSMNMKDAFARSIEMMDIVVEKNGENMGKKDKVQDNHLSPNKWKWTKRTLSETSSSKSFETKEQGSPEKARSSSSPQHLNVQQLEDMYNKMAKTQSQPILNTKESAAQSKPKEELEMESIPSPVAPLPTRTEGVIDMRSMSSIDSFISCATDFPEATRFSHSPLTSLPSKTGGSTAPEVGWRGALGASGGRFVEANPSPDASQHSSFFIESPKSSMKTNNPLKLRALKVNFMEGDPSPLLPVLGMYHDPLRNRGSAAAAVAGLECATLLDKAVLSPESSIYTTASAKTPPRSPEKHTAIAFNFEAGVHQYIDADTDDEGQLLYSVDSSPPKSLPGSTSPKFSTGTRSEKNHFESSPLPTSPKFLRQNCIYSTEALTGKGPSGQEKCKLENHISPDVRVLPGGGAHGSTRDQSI
Experimental: The purpose of this in vitro study was to evaluate the effects of HP184 on cloned human Kv2.1 potassium channels expressed in U-373MG cells using the whole-cell patch-clamping technique.
U-373MG cells expressing the human Kv2.1 channels were grown in DMEM media supplemented with 10% fetal bovine serum, 1×penicillin/streptomycin and […], G418 (Invitrogen, Carlsbad, Calif.) in an atmosphere of 95% air/5% CO2. Cells used for patch-clamping were seeded on glass or plastic coverslips 12-36 hours before use. Kv2.1 Currents were recorded at room temperature using the whole-cell configuration of the patch clamp technique with an Axopatch 200B amplifier (Axon Instruments, Foster City, Calif.). Briefly, electrodes (2-4 MΩ resistance) were fashioned from TW150F glass capillary tubes (World Precision Instruments, Sarasota, Fla.) and filled with pipette solution (in mM: potassium aspartate 120; KCl 20; Na2ATP 4; HEPES 5; MgCl2 1; pH 7.2 adjusted with KOH). For dose-dependently, currents were initiated by a 300-ms positive voltage pulse (20 mV) followed by a 50-ms negative pulse (−100 mV) and were recorded for off-line analyses. Once current from a cell perfused with control external solution (in mM: NaCl 130; KCl 5; sodium acetate 2.8; MgCl2 1; HEPES, 10; glucose 10; CaCl2 1 at pH7.4 adjusted with NaOH) was stabilized, the cell was perfused with external solution containing 1 μM HP184 (batch: R.C.4.53.3; molecular weight: 320.5; diluted from a 50 mM stock solution in DMSO; the DMSO final concentration in all drug solutions was not more than 0.06%). Currents were continuously recorded until they reached steady-state condition. The same procedure was performed with increasing concentrations of HP184 (3, 10 and 30 μM, sequentially). For each concentration from each cell, the steady-state current at the end of the 20-mV activation pulse was measured in pico Ampere (pA). The amplitude in pA for each concentration was compared with that for the control solution from the same cell and expressed as percent control (% control).

Row | SMILES | Release of norepinephrine, acetylcholine and serotonin from rat brain slices (in words) [1] | Voltage-Gated Potassium Current (% Control), Average ([2]; 1 μM) [% Control] | Voltage-Gated Potassium Current (% Control), single cells ([2]; 1 μM) | Voltage-Gated Potassium Current (% Control), Average ([2]; 3 μM) [% Control] | Voltage-Gated Potassium Current (% Control), single cells ([2]; 3 μM) | Voltage-Gated Potassium Current (% Control), Average ([2]; 10 μM) [% Control] | Voltage-Gated Potassium Current (% Control), single cells ([2]; 10 μM) | Voltage-Gated Potassium Current (% Control), Average ([2]; 30 μM) [% Control] | Voltage-Gated Potassium Current (% Control), single cells ([2]; 30 μM) | IC50 ([2]; HIT-T15 cells, steady-state current at end of 20-mV pulse, read-out: IC50, block of voltage-gated potassium currents) [µM] | Kv 2.1 Current (% Control), Average ([3]; 1 μM) [% Control] | Kv 2.1 Current (% Control), single cells ([3]; 1 μM) | Kv 2.1 Current (% Control), Average ([3]; 3 μM) [% Control] | Kv 2.1 Current (% Control), single cells ([3]; 3 μM) | Kv 2.1 Current (% Control), Average ([3]; 10 μM) [% Control] | Kv 2.1 Current (% Control), single cells ([3]; 10 μM) | Kv 2.1 Current (% Control), Average ([3]; 30 μM) [% Control] | Kv 2.1 Current (% Control), single cells ([3]; 30 μM) | IC50 ([3]; U-373MG cells expressing human Kv2.1, read-out: IC50, block of Kv2.1 current) [µM]
1 | Nc1ccncc1 [4-AP, 4-aminopyridine] | dependent on added calcium | – | – | – | – | – | – | – | – | – | – | – | – | – | – | – | – | – | –
2 | CCCN(c1ccncc1F)n1cc(C)c2ccccc21 [HP184, N-(3-fluoro-4-pyridinyl)-N-propyl-3-methyl-1H-indole-1-amine] | – | 85.7 | 95.1 % Control and 84.7 % Control and 80.9 % Control and 85.4 % Control and 82.6 % Control | 62.5 | 86.4 % Control and 61.5 % Control and 46.4 % Control and 58.8 % Control and 59.3 % Control | 17.2 | 34.0 % Control and 9.1 % Control and 12.6 % Control (2×) and 17.8 % Control | 1.4 | 2.6 % Control and 0.8 % Control and 0.9 % Control and 1.2 % Control | 3.9 | 91.7 | 98 % Control and 91.0 % Control and 89.2 % Control and 91.6 % Control and 95.0 % Control and 90.5 % Control (2×) and 94.5 % Control and 83.6 % Control and 91.8 % Control and 95.5 % Control | 72.3 | 93.0 % Control and 63.1 % Control and 69.6 % Control and 62.9 % Control and 68.5 % Control and 70.8 % Control and 87.5 % Control and 86.1 % Control and 88.5 % Control and 79.9 % Control and 89.7 % Control | 28.3 | 58.2 % Control and 19.9 % Control and 37.7 % Control and 24.4 % Control and 17.1 % Control and 38.5 % Control and 43.8 % Control and 13.1 % Control and 19.1 % Control and 12.5 % Control | 10.4 | 22.1 % Control and 13.7 % Control (2×) and 16.2 % Control and 6.7 % Control and 1.4 % Control and 12.8 % Control and 4.8 % Control (2×) and 8.7 % Control | 5.6

— patent publication US20070129403A1, “METHOD OF TREATING SCHIZOPHRENIA AND/OR GLUCOREGULATORY ABNORMALITIES” (AVENTIS PHARMACEUTICALS INC., priority 2004, published 2007)
